Test results from paper PMC10400562, “Label-free measurement of antimicrobial peptide interactions with lipid vesicles and nanodiscs using microscale thermophoresis” (Scientific Reports, 2023).
Read-outs that look alike come from different tables or passages of the source. Non-standard residues stand in square brackets, D forms with d. Residues, ends and D or L forms follow the SMILES beside them.

Assay: Label-free MST, peptide binding to SMA nanodiscs
Settings: for Kd: label-free MST, SMA nanodiscs (anionic belt), 2500 nM AMP, apparent KD dominated by interaction with SMA polymer, mean ± SD of triplicates; for SMA KP, DMPC (MST) / SMA KP, DMPC/PG (MST): partition coefficient from initial fluorescence on MST instrument, SMA nanodiscs, hyperbolic fit, ± SD of triplicate fits
Protocol: The MST data for two nanodisc types, SMA and SMA-QA, were evaluated using the same methodology as the vesicle data, with FHot taken during the TRIC, and Fnorm plotted against log[lipid] and fit to Eq. (6).
The DMPC, and DMPC with 5% DMPG 21 mM vesicle stocks were used for the nanodisc preparation. The stocks were combined with an 8% SMA stock solution to yield a final SMA concentration of 1% for SMA nanodiscs. The stocks were combined with a 100 mg/mL SMA-QA stock to yield a final lipid:SMA-QA w/w ratio of 1:1.5. The combined SMA/SMA-QA and lipid mixture were incubated at room temperature overnight and purified by SEC. Fractions containing SMA/SMA-QA discs were concentrated using centrifugation filters. Total lipid concentration was determined by ^31P NMR (Figs. S4–S7). Nanodisc size was confirmed using a Malvern Zetasizer Nano ZS (Malvern Panalytical Ltd, Malvern, United Kingdom).
All MST measurements were conducted on a NanoTemper Monolith NT. Labelfree instrument, using Monolith NT. Labelfree standard treated zero background capillaries.
A dilution series of vesicles/nanodiscs was prepared from 3 mM to 100 nM lipid concentrations, comprising 15 discrete samples, and an additional zero lipid sample, for a total of 16 lipid concentrations. Final MST samples were prepared as a combination of 25 µL lipid solution and 25 µL 5 µM peptide solution (Table S1 in the Supporting Information).
MST measurements were conducted with excitation power set to 15%, with the MST power set to high. Laser time settings were: 3 s pre-laser, 30 s on time, and 3 s after heating. FHot was taken from the T-jump period after 1.5 s and FCold taken in the second prior to IR laser activation. For the evaluation of KP, the initial fluorescence was taken as the value reported during the period before the application of the laser. The MST response and initial fluorescence were extracted directly as a text file for further processing in MATLAB.
In a typical binding experiment that yields a sigmoidal curve, the Hill equation can be fitted to yield KD:[66]6 y=y0+EMaxLipid^n/KDn+Lipid^n where y is the MST response, y0 is the MST response of the AMP in an aqueous solution (i.e., in the absence of lipids), n is the Hill coefficient, and EMax is the maximal effect of the tested substrate. The removal of outlying MST response points was necessary. Erroneous points were identified by poor MST trace shapes or higher than expected initial fluorescence that was absent in the other replicates or subsequent points, but otherwise no further treatment of data was necessary. In all instances the MST response was plotted against log lipid concentration in nM and fit to Eq. (6).
The Kp of a molecule can be determined experimentally by observing changes in fluorescent intensity in the presence of an increasing concentration of lipid, and fitting to Eq. (8)[43].8 I/Iaq=1+KpVmLipidIL/Iaq/1+KPVmLipid
In Eq. (8) the fluorescence intensity of the AMP (I) is normalised to the fluorescence intensity of the AMP in an aqueous environment (Iaq), Vm is the molar volume of the lipids and IL is the fluorescence intensity of the AMP in the lipidic environment. For Vm, the average molar volume of the lipid composition is used. In the case of the DMPC only environments it is taken as the Vm of DMPC (1.023 nm^3), and in the DMPC-DMPG mixture it is the weighted average relative to the composition used (Vm DMPG = 0.997 nm^3)[54].

[1] = read-out: SMA KD, DMPC/PG (MST)

| SMILES | Kd (read-out: SMA KD, DMPC (MST)) [nM] | Kd [1] [nM] | SMA KP, DMPC (MST) | SMA KP, DMPC/PG (MST) |
| --- | --- | --- | --- | --- |
| N=C(N)NCCC[C@@H]1NC(=O)[C@H](CCCNC(=N)N)NC(=O)[C@H](Cc2c[nH]c3ccccc23)NC(=O)[C@H](Cc2c[nH]c3ccccc23)NC(=O)[C@H](Cc2c[nH]c3ccccc23)NC(=O)[C@H](CCCNC(=N)N)NC1=O [compound 1] (cyclo(WWWRRR)) | 1200 ± 500 | 2200 ± 400 | 10.40 ± 1.52 × 10^3 | 10.27 ± 2.13 × 10^3 |
| N=C(N)NCCC[C@@H]1NC(=O)[C@H](Cc2c[nH]c3ccccc23)NC(=O)[C@H](CCCNC(=N)N)NC(=O)[C@H](Cc2c[nH]c3ccccc23)NC(=O)[C@H](CCCNC(=N)N)NC(=O)[C@H](Cc2c[nH]c3ccccc23)NC1=O [compound 2] (cyclo(WRWRWR)) | 2700 ± 500 | 5600 ± 1100 | 9.72 ± 2.69 × 10^3 | 3.57 ± 0.36 × 10^3 |
| NCCCC[C@@H]1NC(=O)[C@H](CCCCN)NC(=O)[C@H](Cc2c[nH]c3ccccc23)NC(=O)[C@H](Cc2c[nH]c3ccccc23)NC(=O)[C@H](Cc2c[nH]c3ccccc23)NC(=O)[C@H](CCCCN)NC1=O [compound 3] (cyclo(WWWKKK)) | 1100 ± 300 | 1100 ± 500 | 2.34 ± 1.40 × 10^3 | 4.21 ± 0.43 × 10^3 |
| NCCCC[C@@H]1NC(=O)[C@H](Cc2c[nH]c3ccccc23)NC(=O)[C@H](CCCCN)NC(=O)[C@H](Cc2c[nH]c3ccccc23)NC(=O)[C@H](CCCCN)NC(=O)[C@H](Cc2c[nH]c3ccccc23)NC1=O [compound 4] (cyclo(WKWKWK)) | 8600 ± 500 | 9800 ± 300 | 0.70 ± 0.11 × 10^3 | 1.14 ± 0.12 × 10^3 |
| CC(C)C[C@@H]1NC(=O)[C@@H](CCCNC(=N)N)NC(=O)[C@H](CCCCN)NC(=O)[C@H](CC(N)=O)NC(=O)[C@@H](Cc2c[nH]c3ccccc23)NC(=O)[C@H](Cc2c[nH]c3ccccc23)NC1=O [compound 5] (cyclo(LW[dW]NK[dR])) | – | – | 6.98 ± 1.24 × 10^3 | 4.75 ± 0.32 × 10^3 |
